Entries after “also recorded” stand apart in the source; their conditions may differ.
Tests used:
[1] = test system: neutrophils; test: Quantification of cell viability with Sytox Green, fluorometer; type: cell-based, Human; details: PMA (40 nM) for 240 min, Sytox Green (2µM)
Experimental: Neutrophils were activated with PMA (40 nM) for 15 min and 240 min, stained with the vital dye Sytox Green (2µM) and analyzed with a fluorometer. […] Different numbers of neutrophils per well were plated and activated with PMA for 240 min or incubated with the non ionic detergent NP-40.

[2] = test system: neutrophils; test: Nuclear area and nuclear morphology (perimeter vs. Heywood circularity factor) of activated neutrophils, Sytox Green staining, automated microscopy; type: cell-based, Human
Experimental: During NET formation there are discrete changes in nuclear size and shape. According to the invention four distinct nuclear morphologies were defined (Fig. 1) (i) lobulated, (ii) delobulated, (iii) diffused NETs and (iv) spread NETs. […] The nuclear morphology, i.e. the morphology of the nuclear DNA was analyzed in more detail by plotting the perimeter vs. the Heywood circularity factor.
In contrast, most nuclei of neutrophils activated for 240 min, had diffused nuclei, or spread NETs that could be measured by their large perimeter and low Heywood circularity factor (Fig. 3b).
For nuclear size and shape, neutrophils were activated with PMA for 240 min, fixed with PFA (2%), permeabilized with Triton X100 (0.1%) and stained with Sytox Green. The four distinct nuclear morphologies during the progression to NET formation are lobulated, delobulated or diffused NETs and spread NETs (Fig.1). Bar=10 µm
Neutrophils were activated with PMA (40nM). Fifteen min after activation the nuclei were homogenous and smaller than 100 µm^2 in area while the nuclei of activated neutrophils were heteregenous and between 150 and more than 350 µm^2 (Figs. 3). Each dot in Figs. 3 (Dot plot of nuclei analyzed for perimeter vs. Heywood circularity factor) represents a nucleus. Gates were set to distinguish between lobulated, delobulated, diffused NETs and spread NETs.
In Fig. 3a fifteen min after activation, more than 95% of the nuclei were either lobulated or delobulated. […] The images were generated by an automated microscopy system and analyzed by image analysis software Scan ^R.

With CCCCCCCCCCCCCC(=O)O[C@@H]1[C@@H](C)[C@@]2(O)[C@@H](C=C(CO)C[C@]3(O)C(=O)C(C)=C[C@@H]23)[C@@H]2C(C)(C)[C@]12OC(C)=O [PMA, phorbol-12-myristate-13-acetate] the “cell death (Sytox Green fluorescence)” value [1] was “fluorescent, indicating cell death; also recorded: most cells die after activation”, the “nuclei either diffused or already made NETs” value ([2]; 240 min after activation with PMA (40nM)) was “more than 95%” and the “nuclei either lobulated or delobulated” value ([2]; fifteen min after activation with PMA (40nM)) was “more than 95%”. The “nuclear area (mean)” value ([2]; neutrophils activated with PMA (40 nM) for 240 min, SD: 109µm^2, n: 2000) was 244 µm^2.
